Assay results from US20120328565A1, “ANTIVIRAL COMPOUNDS” (priority 2011, published 2012).

The compounds below were run on HCV GT-1b Con1 subgenomic replicon (assay: HCV GT1b replicon luciferase reporter assay (2209-23 cells)). Conditions: Hepatitis C virus, 2209-23 cell line (Huh-7 with GT-1b Con1 subgenomic replicon), Renilla luciferase read 72 hours after compound addition.
Format: cell-based
Source text: Determination of compounds HCV GT1b inhibitory replicon activity using the replicon luciferase reporter assay
The 2209-23 cell line was developed at Roche by stable transfection of the hepatoma cell line Huh-7 with a GT-1b Con1 subgenomic bicistronic replicon as previously described. Subgenomic replicon cell line was established in cured Huh7 cells, obtained from R. Bartenschlager (J. Virol. 2003 March; 77 (5):3007-19) The GT-1a H77 subgenomic replicon vector pRLuc H771b 75 S/I, was created by replacing the non structural region of the GT-1b Con1 subgenomic replicon by the one of the H77 strain, except for the first 75 amino acids of the NS3 protein that are from GT-1b Con1 strain. (J. Virol. 2001 77:5352-59) The GT-1a pRLuc H771b 75 S/I subgenomic replicon cell line was established in cured Huh7 cells, obtained from R. Bartenschlager. (J. Virol. 2003 March; 77 (5):3007-19)
All the subgenomic replicon cell lines were cultured in Dulbecco's Modified Eagle Medium (DMEM-Glutamax™-I; Invitrogen Cat #10569-010). The medium was supplemented with 10% Fetal Bovine Serum (Invitrogen Cat #10082-147), 1% penicillin/streptomycin (Mediatech Cat #30-002-CI) and 500 μg/ml of G418 (Mediatech Cat #30-234-CI). Cells were maintained at 37° C. in a humidified 5% CO2 atmosphere.
2209-23 cells were plated at a cell density of 5000 cells per well in 96 well plates (Becton Dickinson, Cat #35 3296). Cells were plated in 90 μl of Dulbecco's Modified Eagle Medium (DMEM-Glutamax™-I), (Invitrogen Cat #10569-010) medium was supplemented with 5% Fetal Bovine Serum (Invitrogen Cat #10082-147), 1% penicillin/streptomycin (Mediatech Cat #30-002-CI). The pRluc H771b 75 S/I cells were plated in 96-well plate at 3000 cells/well in DMEM-Glutamax™-I containing 5% FBS and 1% penicillin/streptomycin in 90 μl final volume. Cells were allowed to equilibrate for 24 hours at 37° C. and 5% CO2 at which time compounds were added. Compounds (or medium as a control) were added 24 hours post-plating in 3 fold dilutions at a final DMSO concentration of 1% in 10 ul volume. Renilla luciferase reporter signal was read 72 hours after addition of compounds using the Renilla Luciferase Assay System (Promega, cat #E2820). EC50 values were defined as the compound concentration at which a 50% reduction in the levels of renilla luciferase reporter was observed as compared to control samples in the absence of compound and was determined by non-linear fitting of compound dose-response data. The EC50 was approximated if maximum percentage inhibition was less than 90% and more than 70%.

Compound	IC50 [pM]
COC(=O)N[C@H](C(=O)N1CCC[C@H]1c1ncc(-c2ccc(-c3ccc(NC(=O)NC(=O)[C@@H]4CCCN4C(=O)[C@H](NC(=O)OC)c4ccccc4)cc3)cc2)[nH]1)C(C)C [Compound I-3, ((S)-1-{(S)-2-[5-(4′-{3-[(S)-1-((R)-2-Methoxycarbonylamino-2-phenyl-acetyl)-pyrrolidine-2-carbonyl]-ureido}-biphenyl-4-yl)-1H-imidazol-2-yl]-pyrrolidine-1-carbonyl}-2-methyl-propyl)-carbamic acid methyl ester]	9
COC(=O)N[C@H](C(=O)N1CCC[C@H]1c1ncc(-c2ccc(-c3ccc(NC(=O)NC(=O)[C@@H]4CCCN4C(=O)[C@@H](c4ccccc4)N(C)C)cc3)cc2)[nH]1)C(C)C [Compound I-4, ((S)-1-{(S)-2-[5-(4′-{3-[(S)-1-((R)-2-Dimethylamino-2-phenyl-acetyl)-pyrrolidine-2-carbonyl]-ureido}-biphenyl-4-yl)-1H-imidazol-2-yl]-pyrrolidine-1-carbonyl}-2-methyl-propyl)-carbamic acid methyl ester]	7
COC(=O)N[C@H](C(=O)N1CCC[C@H]1C(=O)NC(=O)Nc1ccc(-c2ccc(-c3cnc([C@@H]4CCCN4C(=O)[C@@H](NC(=O)OC)C(C)C)[nH]3)cc2)cc1F)C(C)C [Compound I-12, ((S)-1-{(S)-2-[5-(3′-Fluoro-4′-{3-[(S)-1-((S)-2-methoxycarbonylamino-3-methyl-butyryl)-pyrrolidine-2-carbonyl]-ureido}-biphenyl-4-yl)-1H-imidazol-2-yl]-pyrrolidine-1-carbonyl}-2-methyl-propyl)-carbamic acid methyl ester]	64
COC(=O)N[C@H](C(=O)N1CCC[C@H]1c1ncc(-c2ccc(-c3nc4ccc(NC(=O)NC(=O)[C@@H]5CCCN5C(=O)OC(C)(C)C)cc4s3)cc2)[nH]1)C(C)C [Compound I-8, (S)-2-{3-[2-(4-{2-[(S)-1-((S)-2-Methoxycarbonylamino-3-methyl-butyryl)-pyrrolidin-2-yl]-3H-imidazol-4-yl}-phenyl)-benzothiazol-6-yl]-ureidocarbonyl}-pyrrolidine-1-carboxylic acid tert-butyl ester]	7750
COC(=O)N[C@H]1CCC(=O)N2CCC[C@@H](c3ncc(-c4ccc(-c5ccc(NC(=O)NC(=O)[C@@H]6CCCN6C(=O)[C@H](NC(=O)OC)c6ccccc6)cc5)cc4)[nH]3)N2C1=O [Compound I-7, {(4S,7S)-4-[5-(4′-{3-[(S)-1-((R)-2-Methoxycarbonylamino-2-phenyl-acetyl)-pyrrolidine-2-carbonyl]-ureido}-biphenyl-4-yl)-1H-imidazol-2-yl]-6,10-dioxo-octahydro-pyridazino[1,2-a][1,2]diazepin-7-yl}-carbamic acid methyl ester]	427
COC(=O)N[C@H](C(=O)N1CCC[C@H]1C(=O)NC(=O)Nc1cccc(-c2ccc(-c3cnc([C@@H]4CCCN4C(=O)[C@@H](NC(=O)OC)C(C)C)[nH]3)cc2)c1)C(C)C [Compound I-2, ((S)-1-{(S)-2-[3-(4′-{2-[(S)-1-((S)-2-Methoxycarbonylamino-3-methyl-butyryl)-pyrrolidin-2-yl]-3H-imidazol-4-yl}-biphenyl-3-yl)-ureidocarbonyl]-pyrrolidine-1-carbonyl}-2-methyl-propyl)-carbamic acid methyl ester]	8420
COC(=O)N[C@H](C(=O)N1CCC[C@H]1C(=O)NC(=O)Nc1ccc(-c2ccc(-c3cnc([C@@H]4CCCN4C(=O)[C@@H](NC(=O)OC)C(C)C)[nH]3)cc2)cc1)C(C)C [Compound I-1, ((S)-1-{(S)-2-[3-(4′-{2-[(S)-1-((S)-2-Methoxycarbonylamino-3-methyl-butyryl)-pyrrolidin-2-yl]-3H-imidazol-4-yl}-biphenyl-4-yl)-ureidocarbonyl]-pyrrolidine-1-carbonyl}-2-methyl-propyl)-carbamic acid methyl ester]	463
COC(=O)N[C@H](C(=O)N1CCC[C@H]1C(=O)NC(=O)NCc1ccc(-c2ccc(-c3cnc([C@@H]4CCCN4C(=O)[C@@H](NC(=O)OC)C(C)C)[nH]3)cc2)cc1)C(C)C [Compound I-5, ((S)-1-{(S)-2-[5-(4′-{3-[(S)-1-((S)-2-Methoxycarbonylamino-3-methyl-butyryl)-pyrrolidine-2-carbonyl]-ureidomethyl}-biphenyl-4-yl)-1H-imidazol-2-yl]-pyrrolidine-1-carbonyl}-2-methyl-propyl)-carbamic acid methyl ester]	1980
COC(=O)N[C@H](C(=O)N1CCC[C@H]1c1ncc(-c2ccc(-c3nc4ccc(NC(=O)NC(=O)[C@@H]5CCCN5C(=O)[C@@H](c5ccccc5)N(C)C)cc4s3)cc2)[nH]1)C(C)C [Compound I-11, [(S)-1-((S)-2-{5-[4-(6-{3-[(S)-1-((R)-2-Dimethylamino-2-phenyl-acetyl)-pyrrolidine-2-carbonyl]-ureido}-benzothiazol-2-yl)-phenyl]-1H-imidazol-2-yl}-pyrrolidine-1-carbonyl)-2-methyl-propyl]-carbamic acid methyl ester]	29
COC(=O)N[C@H](C(=O)N1CCC[C@H]1C(=O)NC(=O)Nc1ccc2nc(-c3ccc(-c4cnc([C@@H]5CCCN5C(=O)[C@@H](NC(=O)OC)C(C)C)[nH]4)cc3)sc2c1)C(C)C [Compound I-9, [(S)-1-((S)-2-{5-[4-(6-{3-[(S)-1-((S)-2-Methoxycarbonylamino-3-methyl-butyryl)-pyrrolidine-2-carbonyl]-ureido}-benzothiazol-2-yl)-phenyl]-1H-imidazol-2-yl}-pyrrolidine-1-carbonyl)-2-methyl-propyl]-carbamic acid methyl ester]	344
COC(=O)N[C@H](C(=O)N1CCC[C@H]1c1ncc(-c2ccc(-c3ccc(CNC(=O)NC(=O)[C@@H]4CCCN4C(=O)[C@H](NC(=O)OC)c4ccccc4)cc3)cc2)[nH]1)C(C)C [Compound I-6, ((S)-1-{(S)-2-[5-(4′-{3-[(S)-1-((R)-2-Methoxycarbonylamino-2-phenyl-acetyl)-pyrrolidine-2-carbonyl]-ureidomethyl}-biphenyl-4-yl)-1H-imidazol-2-yl]-pyrrolidine-1-carbonyl}-2-methyl-propyl)-carbamic acid methyl ester]	6740
COC(=O)N[C@H](C(=O)N1CCC[C@H]1c1ncc(-c2ccc(-c3ccc(NC(=O)NC(=O)[C@@H]4CCCN4C(=O)[C@H](NC(=O)OC)c4ccccc4)cn3)cc2)[nH]1)C(C)C [Compound I-10, [(S)-1-((S)-2-{5-[4-(5-{3-[(S)-1-((R)-2-Methoxycarbonylamino-2-phenyl-acetyl)-pyrrolidine-2-carbonyl]-ureido}-pyridin-2-yl)-phenyl]-1H-imidazol-2-yl}-pyrrolidine-1-carbonyl)-2-methyl-propyl]-carbamic acid methyl ester]	41
